Laboratory results: PMC9318694 (Molecules, 2022)
Read-outs that look alike come from different tables or passages of the source.

What was measured:
D2R [1] = target: T1, D2R (Homo sapiens, UniProt P14416); assay: HTRF KI determination of the selected ligands; format: binding; details: for Fold Difference in comparison to the determined KI of dopamine / Ki: Table 4; for Ki: n = 6
Procedure: The selected compounds were investigated in vitro to determine their binding affinities (KI values) at D2R.
All the HTRF assays were performed using a Tecan Spark plate reader. The respective settings were specifically modified and optimized for the determination of D2R ligand-binding affinities. […] Fluorophores were excited at 320 nm. A Dichroic 510 mirror was used, while lag and integration times of 100 and 400 µs were applied, respectively. Flashes were set to 75. Electronic gain was automatically optimized, while the z-position was optimized based on the well with the highest expected signal. […] The first plate was used to determine the gain and the z-position. Subsequently, the determined values were set manually for the second plate to enable direct comparison between the different plates.
The cells were stored in liquid nitrogen until further use. […] Bromocriptine mesylate (50 mg; CAYM14598-50) was acquired from VWR. The assay was conducted according to the standard operation protocol (SOP) available from PerkinElmer/cisbio. The 96-well plates were incubated at room temperature for 2 h. The 96-well plates were read on a Tecan Spark plate reader (the settings are shown in Section 4.5). The respective concentrations of the dilution series were performed in triplicates. In total, KD determination was performed three times.
The materials described in 4.6 were also used during KI determination of the ligands selected after screening. […] KI was determined following the SOP available at PerkinElmer/cisbio. The 96-well plates were incubated at room temperature in the dark for 2 h. The 96-well plates were read on a Tecan Spark plate reader (the settings are shown in Section 4.5). In total, KI determination was performed twice.

D2R [2] = target: T1, D2R; assay: HTRF competitive binding screening of virtual hits at 10 µM (normalized decrease in fluorescence); details: for Normalized Decrease in Fluorescence ± SD: Table 3, 10 µM, n = 4, normalized to the control; for NDF (normalized decreased fluorescence) ± SD: Table S9, all selected virtual hits, n = 4, 10 µM
D2R [3] = target: T1, D2R; details: cited from earlier work
[4] = Table S1, data set of actives, radio-ligand binding assays, ref ChEMBL, [50]-[70], read-out: KI
[5] = Table S2, data set of inactives, radio-ligand binding (RLB) assays, ref ChEMBL, [71]-[92], read-out: KI

T1 sequence (P14416 whole entry): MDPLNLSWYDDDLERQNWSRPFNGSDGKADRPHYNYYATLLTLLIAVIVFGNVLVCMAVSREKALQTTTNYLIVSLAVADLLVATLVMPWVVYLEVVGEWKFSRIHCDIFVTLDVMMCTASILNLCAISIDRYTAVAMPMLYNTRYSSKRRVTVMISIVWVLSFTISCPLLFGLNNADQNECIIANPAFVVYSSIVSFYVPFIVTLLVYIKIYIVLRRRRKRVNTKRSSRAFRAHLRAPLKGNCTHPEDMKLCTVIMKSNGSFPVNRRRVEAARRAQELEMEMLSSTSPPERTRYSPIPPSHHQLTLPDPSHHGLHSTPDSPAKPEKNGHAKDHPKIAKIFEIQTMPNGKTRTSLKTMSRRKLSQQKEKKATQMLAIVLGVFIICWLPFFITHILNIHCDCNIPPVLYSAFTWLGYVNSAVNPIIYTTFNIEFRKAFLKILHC

O[C@H](CNCCNc1ccc(C(F)(F)F)cn1)CSc1ccc(F)cc1 [Compound 18]
activity (KI range in words) (D2R [1]): micromolar | Fold Difference in comparison to the determined KI of dopamine (D2R [1]): 4.2 | Ki (D2R [1]): 2.63 µM | Normalized Decrease in Fluorescence ± SD (D2R [2]): 10.85 ± 4.93 | NDF (normalized decreased fluorescence) ± SD (D2R [2]): 10.85 ± 4.93

O=C(CCN1CCN(c2ccccc2F)CC1)Nc1cccc(F)c1 [Compound 17]
activity (KI range in words) (D2R [1]): micromolar | Fold Difference in comparison to the determined KI of dopamine (D2R [1]): 9.0 | Ki (D2R [1]): 1.24 µM | Normalized Decrease in Fluorescence ± SD (D2R [2]): 8.18 ± 3.62 | NDF (normalized decreased fluorescence) ± SD (D2R [2]): 8.18 ± 3.62

NC(=O)c1ccccc1OCCCN1CCN(c2ccccc2)CC1 [Compound 19]
activity (KI range in words) (D2R [1]): submicromolar | Fold Difference in comparison to the determined KI of dopamine (D2R [1]): 34.7 | Ki (D2R [1]): 0.32 µM | Normalized Decrease in Fluorescence ± SD (D2R [2]): 22.08 ± 6.62 | NDF (normalized decreased fluorescence) ± SD (D2R [2]): 22.08 ± 6.62

CCN(CCC(=O)Nc1cccc(OC)c1)Cc1ccccc1 [Compound 16]
Fold Difference in comparison to the determined KI of dopamine (D2R [1]): 1.1 | Ki (D2R [1]): 10 µM | Normalized Decrease in Fluorescence ± SD (D2R [2]): 15.74 ± 18.15 | NDF (normalized decreased fluorescence) ± SD (D2R [2]): 15.74 ± 18.15

O=C(CCCN1CC=C(n2c(=O)[nH]c3ccccc32)CC1)c1ccc(F)cc1 [Droperidol, droperidol]
Normalized Decrease in Fluorescence ± SD (D2R [2]): 38.69 ± 2.56

CCN1CCC[C@H]1CNC(=O)c1cc(S(N)(=O)=O)ccc1OC [Sulpiride, (S)-(−)-sulpiride]
Normalized Decrease in Fluorescence ± SD (D2R [2]): 30.65 ± 6.79

CC(C)C[C@H]1C(=O)N2CCC[C@H]2[C@]2(O)O[C@](NC(=O)[C@@H]3C=C4c5cccc6[nH]c(Br)c(c56)C[C@H]4N(C)C3)(C(C)C)C(=O)N12 [Compound 2, Bromocriptine]
Normalized Decrease in Fluorescence ± SD (D2R [2]): 39.10 ± 1.31 | Ki (D2R [3]): 0.0009 µM

NS(=O)(=O)c1ccc(CCNCc2ccc(-c3cc(Cl)ccc3Cl)o2)cc1 [Compound 15]
activity (KI range in words) (D2R [1]): micromolar | Fold Difference in comparison to the determined KI of dopamine (D2R [1]): 2.6 | Ki (D2R [1]): 4.31 µM | Normalized Decrease in Fluorescence ± SD (D2R [2]): 3.99 ± 2.58 | NDF (normalized decreased fluorescence) ± SD (D2R [2]): 3.99 ± 2.58

CC/N=C1/SC(CC(=O)Nc2ccccc2C(F)(F)F)C(=O)N1CC (stereo not drawn) [Compound 11]
NDF (normalized decreased fluorescence) ± SD (D2R [2]): 0.84 ± 0.23

c1cnc(N2CCN(Cc3ccc4c(c3)OCO4)CC2)nc1 [Piribedil, piribedil]
Normalized Decrease in Fluorescence ± SD (D2R [2]): 9.21 ± 3.80

CN1CCc2cccc3c2[C@H]1Cc1ccc(O)c(O)c1-3 [Compound 1, Apomorphine]
Normalized Decrease in Fluorescence ± SD (D2R [2]): 9.44 ± 5.97

CN1CCN(C2Cc3ccc(O)cc3Sc3ccc(Cl)cc32)CC1 (stereo not drawn) [Compound 14]
activity (KI range in words) (D2R [1]): nanomolar | Fold Difference in comparison to the determined KI of dopamine (D2R [1]): 2700 | Ki (D2R [1]): 0.004 µM | Normalized Decrease in Fluorescence ± SD (D2R [2]): 40.40 ± 1.39

SC144
NDF (normalized decreased fluorescence) ± SD (D2R [2]): 1.02 ± 0.36

CCCN(CCN1CCN(c2ccnc3ccccc23)CC1)[C@H]1CCc2nc(N)sc2C1 [SC57, (S)-N6-propyl-N6-(2-(4-(quinolin-4-yl)piperazin-1-yl)ethyl)-4,5,6,7-tetrahydrobenzo[d]thiazole-2,6-diamine]
Ki (D2R [3]; read-out: KI): 0.109 µM

CN[C@@H]1Cc2cccc3c2n(c(=O)n3CCOCCOCCCCc2ccccc2)C1 [SC50, (R)-5-(methylamino)-1-(2-(2-(4-phenylbutoxy)ethoxy)ethyl)-5,6-dihydro-4H-imidazo[4,5,1-ij]quinolin-2(1H)-one]
Ki (D2R [3]; [4]): 0.111 µM

CC1CC(C)CN(CCC(=O)Nc2ccc(F)c(F)c2)C1 (stereo not drawn) [Compound 12]
NDF (normalized decreased fluorescence) ± SD (D2R [2]): 1.05 ± 0.50

COc1cccc(CCc2ccccc2OCCN2CCN(c3ccc(F)cc3)CC2)c1 [SC109, 1-(4-fluorophenyl)-4-[2-[2-[2-(3-methoxyphenyl)ethyl]phenoxy]ethyl]piperazine]
Ki (D2R [3]; [5]): > 1000 µM

CCCn1c(=O)n2c3c(cccc31)C[C@@H](NC)C2 [SC40, (R)-5-(methylamino)-1-propyl-5,6-dihydro-4H-imidazo[4,5,1-ij]quinolin-2(1H)-one]
Ki (D2R [3]; [4]): 0.0132 µM

OCc1cccn2ncc(CN3CCN(c4ccc(Cl)cc4)CC3)c12 [SC70, [3-[[4-(4-chlorophenyl)piperazin-1-yl]methyl]pyrazolo[1,5-a]pyridin-4-yl]methanol]
Ki (D2R [3]; [5]): 79 µM

COc1cccc(CCc2ccccc2OCCCCCN2CCN(c3ccccc3OC)CC2)c1 [SC108, 1-(2-methoxyphenyl)-4-[5-[2-[2-(3-methoxyphenyl)ethyl]phenoxy]pentyl]piperazine]
Ki (D2R [3]; [5]): > 1000 µM

CN(CCCCOc1ccc2c(c1)NC(=O)CC2)[C@@H]1Cc2cccc3[nH]c(=O)n(c23)C1 [SC49, (R)-5-(methyl(4-((2-oxo-1,2,3,4-tetrahydroquinolin-7-yl)oxy)butyl)amino)-5,6-dihydro-4H-imidazo[4,5,1-ij]quinolin-2(1H)-one]
Ki (D2R [3]; [4]): 0.0401 µM

C=CC1CN2CCC1CC2C(O)c1ccnc2ccc(O)cc12 (stereo not drawn) [Compound 10]
NDF (normalized decreased fluorescence) ± SD (D2R [2]): 1.13 ± 0.37

c1ccc(CCC2CN(Cc3nc4ccccc4[nH]3)CCO2)cc1 (stereo not drawn) [SC127, 4-(1H-benzimidazol-2-ylmethyl)-2-(2-phenylethyl)morpholine]
Ki (D2R [3]; [5]): > 100 µM

CCCN[C@@H]1Cc2cccc3c2n(c(=O)n3CCCCOCCCCc2ccccc2)C1 [SC42, (R)-1-(4-(4-phenylbutoxy)butyl)-5-(propylamino)-5,6-dihydro-4H-imidazo[4,5,1-ij]quinolin-2(1H)-one]
Ki (D2R [3]; [4]): 0.0372 µM

COc1cccc(CCc2ccccc2OCCCCN2CCN(c3cccc(Cl)c3)CC2)c1 [SC102, 1-(3-chlorophenyl)-4-[4-[2-[2-(3-methoxyphenyl)ethyl]phenoxy]butyl]piperazine]
Ki (D2R [3]; [5]): > 1000 µM
